Paper PMC8962382, “Identification of Novel Mitochondrial Pyruvate Carrier Inhibitors by Homology Modeling and Pharmacophore-Based Virtual Screening” (Biomedicines, 2022)
Numbering of substitutions follows the chain as printed. Where two headings read alike, the source gives them in different places.

How the values were obtained:
[1] = biological target: T1, mitochondrial pyruvate carrier (MPC) (Mus musculus, UniProt P63030+Q9D023); test: Inhibition of pyruvate-stimulated respiration (OCR) of isolated heart mitochondria; format: biochemical, mice; details: for IC50: Table 1, inhibiting mitochondrial pyruvate respiration, isolated heart mitochondria
T1 construct: 50 µg of mitochondrial protein was added to the chambers of an Oxygraph O2K; from tissue; host or cells: heart mitochondria of C57Bl/6J mice
T1 sequence (P63030 2-109 limits assumed): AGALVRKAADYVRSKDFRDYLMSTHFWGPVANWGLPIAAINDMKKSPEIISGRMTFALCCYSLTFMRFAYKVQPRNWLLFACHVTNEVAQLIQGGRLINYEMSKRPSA
T1 sequence (Q9D023 1-127): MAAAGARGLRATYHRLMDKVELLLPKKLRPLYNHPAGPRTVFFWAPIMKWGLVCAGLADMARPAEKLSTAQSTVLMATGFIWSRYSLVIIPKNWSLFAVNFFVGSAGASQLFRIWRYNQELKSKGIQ
Experimental: Hearts were removed from mice after CO2 asphyxiation and homogenized in buffer containing 250 mM sucrose, 10 mM Tris base, and 1 mM EDTA (pH = 7.4) by 8–10 passes of a glass-on-glass Dounce homogenizer on ice. Homogenates were centrifuged at 1000× g for 5 min at 4 °C to pellet nuclei and undisrupted cells. The supernatants were then centrifuged at 10,000× g for 10 min at 4 °C to enrich for mitochondria; this mitochondrial pellet was washed and re-pelleted twice in fresh sucrose/tris buffer. The mitochondrial pellet was then solubilized in ~150 μL of Mir05 respiration buffer (0.5 mM EGTA, 3 mM MgCl2, 60 mM lactobionic acid, 20 mM taurine, 10 mM KH2PO4, 20 mM HEPES, 110 mM sucrose and 1 g/L of fatty acid free bovine serum albumin; pH 7.1). Mitochondrial protein content was then measured by BCA; 50 µg of mitochondrial protein was added to the chambers of an Oxygraph O2K (Oroboros Instruments), with a total volume of 2 mL Mir05 buffer set to 37 °C. Respiration was stimulated with 5 mM pyruvate/2 mM malate and 2 mM ADP. After obtaining steady state respiration measurements, compounds were added to the chamber at the indicated concentrations. Then, 5 mM succinate was added to determine inhibitor specificity towards pyruvate-stimulated respiration. Steady-state rates of oxygen consumption were assessed for 1–2 min before addition of subsequent substrate or inhibitor. Oxygen consumption rates (OCR) were calculated from the change in oxygen concentration over time and normalized to 50 µg of mitochondria within the chamber.

[2] = biological target: T2, Human MPC1 and MPC2 (WT MPC BRET constructs) (Homo sapiens, UniProt O95563+Q9Y5U8); test: BRET-based MPC reporter assay in U2OS cells (MPC1-mCherry / MPC2-NLuc); format: cell-based; details: for BRET activity: test compounds dosed at 10 μM, U2OS cells, WT MPC BRET constructs; for BRET assay activation: WT MPC
T2 construct: expressed in transfected cells; host or cells: U2OS cells, transient transfection
T2 sequence (Q9Y5U8 2-109 limits assumed): T1 sequence (P63030 2-109 limits assumed) with V84A, N99K, Y100H, S103T, R105T, P106A
T2 sequence (O95563 1-127): T1 sequence (Q9D023 1-127) with A2S, M17L, L23M, K26E, T73A, S105A, S123A, G125A, I126H, Q127K
Experimental: Based on the success of a previously described MPC BRET reporter assay, we developed our own BRET assay using more recently adopted BRET donor and acceptor pairs. In this assay, Nanoluciferase is used as the BRET donor, and mCherry fluorescent protein is used as the BRET acceptor. Human MPC1 and MPC2 cDNA constructs with stop codon removed for C-terminal tagging were obtained from the Harvard PlasmID repository. […] Site-directed mutagenesis (Agilent) was then performed to delete linking regions between the MPC proteins and C-terminal tags.
For BRET assays, U2OS cells were transiently transfected with MPC1-mCherry and MPC2-NLuc constructs and, 24 h later, plated onto 9 columns of a clear-bottom white 96-well plate at 10,000 cells/well. As a BRET control, some cells were transfected with MPC2-NLuc only, and these cells plated on the remaining 3 columns of the 96-well plate at 10,000 cells/well. The following day, cells were washed with PBS and starved in phenol red-, glucose-, and pyruvate-free Dulbecco’s Modified Eagle’s Medium (DMEM) for 3 h. Cells were then washed in PBS and then provided PBS with 1 mM CaCl2 and 0.5 mM MgCl2 plus 2 μg/mL coelenterazine h BRET substrate, a white sticker applied to the bottom of the plate, and the plate immediately placed into a BioTek Synergy plate reader. […] After several baseline readings, the plate was ejected, and test substrates/compounds were manually pipetted into the wells. […] All data was then normalized to the values immediately prior to compound injection. Data were either reported as curves over time or average normalized BRET of the several readings immediately after compound injections. For testing pyruvate/inhibitor-binding residues, point mutations were made in MPC1 or MPC2 constructs by site-directed mutagenesis (Agilent); BRET assays were performed the same as above. All of these assays contained 96-well plates directly comparing cells expressing WT MPC and mutant BRET constructs.

MPC1-F66A or MPC2-K49A = test: BRET-based MPC reporter assay with mutant MPC constructs; format: cell-based, Human; details: magnitude much less than in WT-expressing cells
Experimental: For BRET assays, U2OS cells were transiently transfected with MPC1-mCherry and MPC2-NLuc constructs and, 24 h later, plated onto 9 columns of a clear-bottom white 96-well plate at 10,000 cells/well. As a BRET control, some cells were transfected with MPC2-NLuc only, and these cells plated on the remaining 3 columns of the 96-well plate at 10,000 cells/well. The following day, cells were washed with PBS and starved in phenol red-, glucose-, and pyruvate-free Dulbecco’s Modified Eagle’s Medium (DMEM) for 3 h. Cells were then washed in PBS and then provided PBS with 1 mM CaCl2 and 0.5 mM MgCl2 plus 2 μg/mL coelenterazine h BRET substrate, a white sticker applied to the bottom of the plate, and the plate immediately placed into a BioTek Synergy plate reader. Luminescence was then read repeatedly from the top of the plate at emission wavelengths of 485/20 nm and 640/40 nm for NLuc and mCherry signals, respectively. After several baseline readings, the plate was ejected, and test substrates/compounds were manually pipetted into the wells. […] To calculate BRET activity, at each reading interval, the luminescence of 620 nm emission wavelength was divided by the 485 nm emission wavelength, and the values from the MPC2-Nluc-only expressing cells were subtracted from the cells expressing both constructs. […]

**Q.** For `O=C(NC(Cc1c[nH]c2ccccc12)C(=O)O)C1CC1` (stereo not shown) [BE1975], which “MPC inhibitory activity” value ([1]; SAR statement) is on record?
**A.** The value was “abolished activity”.

**Q.** What about the IC50 [1] of the same compound?
**A.** The IC50 was “inactive”.

**Q.** For `Cc1nn(-c2ccccc2)c(C)c1/C=C(\C#N)C(=O)O` [BE1980, (E)-2-Cyano-3-(3,5-Dimethyl-1-Phenyl-4-Pyrazolyl)acrylic Acid], which IC50 ([1]; read-out: IC50) is on record?
**A.** The IC50 was 162 nM.

**Q.** What about the BRET activity [2] of the same compound?
**A.** The BRET activity was “increased BRET activity”.

**Q.** For `N#C/C(=C\c1c[nH]nc1-c1cccc(Br)c1)C(=O)O` [BE1985], which IC50 ([1]; read-out: IC50) is on record?
**A.** Its IC50 is 638 nM.

**Q.** What about the “fold less potent than BE1978” value ([1]; ratio of IC50 values) of the same compound?
**A.** The value was 5 fold.

**Q.** What about the “fold less potent than BE1980” value ([1]; ratio of IC50 values) of the same compound?
**A.** The value was 4 fold.

**Q.** What about the BRET activity [2] of the same compound?
**A.** Its BRET activity is “increased BRET activity”.

**Q.** `CCOC(=O)/C(C#N)=C/c1c[nH]nc1C(C)(C)C` [BE1988] was tested. Which IC50 [1] did it give?
**A.** The IC50 was “inactive”.

**Q.** Which results are given for `N#C/C(=C\c1n[nH]cc1-c1ccccc1)C(=O)O` [BE2617, (E)-2-Cyano-3-(4-Phenyl-3-Pyrazolyl)acrylic Acid]?
**A.** IC50 ([1]; read-out: IC50): 39 nM; fold more potent than UK-5099 ([1]; ratio of IC50 values): 6 fold; BRET activity [2]: showed activity

**Q.** With `Cc1ccc(-c2c[nH]nc2/C=C(\C#N)C(=O)O)cc1` [BE2623, (E)-2-Cyano-3-[4-(p-Tolyl)-3-Pyrazolyl]acrylic Acid] as the compound, how does the IC50 ([1]; read-out: IC50) read?
**A.** The IC50 was 731 nM.

**Q.** And the “fold less potent than UK-5099” value ([1]; inhibiting the respiration)?
**A.** Its value is 3 fold.

**Q.** And the “fold less potent than BE2617” value ([1]; ratio of IC50 values)?
**A.** The value was “more than 18 fold”.

**Q.** What about the BRET activity [2] of the same compound?
**A.** The BRET activity was “showed activity”.

**Q.** What does the source list for `COc1cccc(C(=O)COc2ccc(CC3SC(=O)[N-]C3=O)cc2)c1.[K+]` (stereo not shown) [MSDC-0602K, reference compound]?
**A.** BRET assay activation ([2]; 10 μM MSDC-0602K vs DMSO vehicle): activated; BRET activity in mutants (MPC1-F66A or MPC2-K49A): small, but significant, activation of BRET activity

**Q.** Which IC50 ([1]; read-out: IC50) does the source give for `N#C/C(=C\c1cn(-c2ccccc2)c2ccccc12)C(=O)O` [UK-5099, reference compound] here?
**A.** The IC50 was 241 nM.

**Q.** What about the BRET assay activation ([2]; 5 μM UK-5099 vs DMSO vehicle) of the same compound?
**A.** The BRET assay activation was “activated”.

**Q.** What about the “BRET activity in mutants” value (MPC1-F66A or MPC2-K49A) of the same compound?
**A.** The value was “small, but significant, activation of BRET activity”.

**Q.** For `CC(=O)C(=O)O` [pyruvate], which BRET assay activation ([2]; 5 mM pyruvate vs DMSO vehicle) is on record?
**A.** Its BRET assay activation is “activated”.
